Test results as given in PMC10652874, “Investigation into the mechanism of action of the antimicrobial peptide epilancin 15X” (Frontiers in Microbiology, 2023).

Tested on: S. carnosus TM300
Assay: RNAseq differential gene expression
Assay type: cell-based, Staphylococcus carnosus
Method: For the RNAseq experiments, epilancin was added at sub-lethal concentration (0.5x MIC) to S. carnosus TM300 once the cultures reached an OD600 of 0.6. RNA was extracted 40 min after the treatment, using a FastRNA Pro Blue kit (MP Biomedicals). Both treated and parallel untreated samples were collected at the same time. Sequencing was performed at the Carver Biotechnology Center (UIUC). For RNAseq analysis, gene counts were read in to R (v3.1.1; [Team, 2014]), and 14/2441 genes were removed because they had fewer than 32 total counts across the six samples. edgeR’s (v3.6.7) TMM normalization ([Robinson and Oshlack, 2010]) plus negative binomial generalized log-linear model ([McCarthy et al., 2012]) was used to test for differential expression between treated and untreated groups, while accounting for pairing of U and T replicates from three different cultures. p-values were adjusted using the false discovery rate method ([Benjamini and Hochberg, 1995]).

Epilancin 15X
fold_change Sca_1501 (hypothetical protein): 2.75 | fold_change Sca_1502 (hypothetical protein): 4.86 | fold_change Sca_1504 (hypothetical protein): 11.43 | fold_change Sca_1505 (hypothetical protein): 11.29 | fold_change Sca_1506 (hypothetical protein): 11.77 | fold_change Sca_1507 (hypothetical protein): 12.4 | fold_change Sca_1508 (hypothetical protein): 10.53 | fold_change Sca_1509 (hypothetical protein): 0.5 | fold_change Sca_1523 (hypothetical protein): 2.05 | fold_change Sca_1526 (hypothetical protein): 2.58 | fold_change Sca_1532 (hypothetical protein): 3.3 | fold_change Sca_1533 (hypothetical protein): 3.51 | fold_change Sca_1534 (hypothetical protein): 2.71 | fold_change Sca_1535 (hypothetical protein): 2.45 | fold_change Sca_1536 (hypothetical protein): 2.13 | fold_change Sca_1587 (hypothetical protein): 2.19 | fold_change Sca_1588 (hypothetical protein): 2.2 | fold_change Sca_1643 (hypothetical protein): 2.32 | fold_change Sca_1645 (hypothetical protein): 2.04 | fold_change Sca_1650 (hypothetical protein): 2.26 | fold_change Sca_1667 (hypothetical protein): 3.97 | fold_change Sca_1668 (hypothetical protein): 3.55 | fold_change Sca_1674 (hypothetical protein): 2.34 | fold_change Sca_1675 (hypothetical protein): 3.21 | fold_change Sca_1681 (hypothetical protein): 2.25 | fold_change Sca_1686 (hypothetical protein): 4.82 | fold_change Sca_1687 (hypothetical protein): 4.15 | fold_change Sca_1689 (hypothetical protein): 2.35 | fold_change Sca_1737 (hypothetical protein): 2.07 | fold_change Sca_1738 (hypothetical protein): 2.11 | fold_change Sca_1755 (hypothetical protein): 3.06 | fold_change Sca_1788 (hypothetical protein): 3.57 | fold_change Sca_1804 (hypothetical protein): 5.16 | fold_change Sca_1805 (hypothetical protein): 2.14 | fold_change Sca_1807 (hypothetical protein): 2.04 | fold_change Sca_1815 (hypothetical protein): 0.5 | fold_change Sca_1838 (hypothetical protein): 2.29 | fold_change Sca_1862 (hypothetical protein): 0.49 | fold_change Sca_1869 (hypothetical protein): 2.26 | fold_change Sca_1903 (hypothetical protein): 4.81 | fold_change Sca_1904 (hypothetical protein): 2.54 | fold_change Sca_1905 (hypothetical protein): 2.54 | fold_change Sca_1906 (hypothetical protein): 2.34 | fold_change Sca_1917 (hypothetical protein): 2.88 | fold_change Sca_1954 (hypothetical protein): 2.15 | fold_change Sca_1959 (hypothetical protein): 7.97 | fold_change Sca_1992 (hypothetical protein): 2.15 | fold_change Sca_2001 (hypothetical protein): 2.07 | fold_change Sca_2004 (hypothetical protein): 2.83 | fold_change Sca_2009 (hypothetical protein): 4.15 | fold_change Sca_2014 (hypothetical protein): 2.23 | fold_change Sca_2018 (hypothetical protein): 2.95 | fold_change Sca_2020 (hypothetical protein): 2.38 | fold_change Sca_2021 (hypothetical protein): 2.73 | fold_change Sca_2022 (hypothetical protein): 2.89 | fold_change Sca_2023 (hypothetical protein): 3.49 | fold_change Sca_2024 (hypothetical protein): 8.09 | fold_change Sca_2051 (hypothetical protein): 2.03 | fold_change Sca_2066 (hypothetical protein): 2.09 | fold_change Sca_2098 (hypothetical protein): 2.16 | fold_change Sca_2099 (hypothetical protein): 2 | fold_change Sca_2122 (hypothetical protein): 2.08 | fold_change Sca_2131 (hypothetical protein): 4.04 | fold_change Sca_2132 (hypothetical protein): 2.49 | fold_change Sca_2133 (hypothetical protein): 2.15 | fold_change Sca_2136 (hypothetical protein): 3 | fold_change Sca_2141 (hypothetical protein): 2.34 | fold_change Sca_2182 (hypothetical protein): 0.5 | fold_change Sca_2186 (hypothetical protein): 2.4 | fold_change Sca_2187 (hypothetical protein): 2.82 | fold_change Sca_2188 (hypothetical protein): 5.77 | fold_change Sca_2193 (hypothetical protein): 5.14 | fold_change Sca_2202 (hypothetical protein): 2.52 | fold_change Sca_2207 (hypothetical protein): 2.06 | fold_change Sca_2209 (hypothetical protein): 2.42 | fold_change Sca_2213 (hypothetical protein): 2.61 | fold_change Sca_2215 (hypothetical protein): 3.52 | fold_change Sca_2221 (hypothetical protein): 2.48 | fold_change Sca_2222 (hypothetical protein): 2.24 | fold_change Sca_2226 (hypothetical protein): 3.16 | fold_change Sca_2228 (hypothetical protein): 3.64 | fold_change Sca_2229 (hypothetical protein): 3.47 | fold_change Sca_2230 (hypothetical protein): 2.6 | fold_change Sca_2231 (hypothetical protein): 2.37 | fold_change Sca_2235 (hypothetical protein): 2.04 | fold_change Sca_2236 (hypothetical protein): 2.08 | fold_change Sca_2253 (hypothetical protein): 0.5 | fold_change Sca_2268 (hypothetical protein): 3.5 | fold_change Sca_2269 (hypothetical protein): 3.56 | fold_change Sca_2273 (hypothetical protein): 11.9 | fold_change Sca_2275 (hypothetical protein): 3.1 | fold_change Sca_2284 (hypothetical protein): 0.49 | fold_change Sca_2295 (hypothetical protein): 4.48 | fold_change Sca_2296 (hypothetical protein): 2.39 | fold_change Sca_2297 (hypothetical protein): 2.21 | fold_change Sca_2299 (hypothetical protein): 5.46 | fold_change Sca_2301 (hypothetical protein): 2.01 | fold_change Sca_2334 (hypothetical protein): 5.35 | fold_change Sca_2337 (hypothetical protein): 2.1 | fold_change Sca_2358 (hypothetical protein): 2.95 | fold_change Sca_2370 (hypothetical protein): 2.53 | fold_change Sca_2373 (hypothetical protein): 3.45 | fold_change Sca_2379 (hypothetical protein): 3.04 | fold_change Sca_2384 (hypothetical protein): 2.31 | fold_change Sca_2385 (hypothetical protein): 3.04 | fold_change Sca_2386 (hypothetical protein): 2.57 | fold_change Sca_2398 (hypothetical protein): 19.58 | fold_change Sca_2399 (hypothetical protein): 20.62 | fold_change Sca_2424 (hypothetical protein): 2.19 | fold_change Sca_2425 (hypothetical protein): 2.2 | fold_change Sca_2426 (hypothetical protein): 3.85 | fold_change Sca_2435 (hypothetical protein): 6.09 | fold_change Sca_2436 (hypothetical protein): 5.9 | fold_change Sca_2437 (hypothetical protein): 4.25 | fold_change Sca_2457 (hypothetical protein): 3.07 | fold_change orf1 (hypothetical protein): 2.79 | fold_change ydfG (hypothetical protein): 5.22 | fold_change Sca_1639 (hypothetical protein, gene fmhA'): 2.76 | fold_change Sca_1638 (hypothetical protein, gene fmhA''): 3.24 | fold_change Sca_1124 (iron uptake regulatory protein, gene fur): 2.1 | fold_change geh (lipase (fragment 1), gene geh'): 2.82 | fold_change geh' (lipase (fragment 2), gene geh''): 2.62 | fold_change Sca_0327 (lysine decarboxlyase family protein): 5.96 | fold_change dnaK (molecular chaperone DnaK): 2.67 | fold_change moeA (molybdopterin biosynthesis protein MoeA): 2.6
